Laboratory results reported in patent US20170224662A1 (priority 2016, published 2017).

Test: Binary excipient screening: stability of CPMM 1 mg/mL in IV-compatible excipient solutions in 10 mM pH 3 phosphate buffer
Assay type: physicochemical
Conditions: for CPMM % Purity: t = 0
Procedure: CPMM was evaluated for compatibility with excipients that are suitable for IV administration. A buffer solution (phosphate at pH 3) was selected as the diluent for excipient screening studies. […] CPMM was solubilized in each excipient solution at 1 mg/mL.
While CPMM completely dissolved in the control sample within several minutes, many of the excipient solutions required overnight storage at 5° C. to solubilize the drug.
Each excipient sample solution was placed on a two-week stability study at 25° C./60% relative humidity and 40° C./75% relative humidity, and analyzed for CPMM purity at t=0, 1, and 2 weeks by comparing individual samples to their respective excipient blank solution.

COC(=O)C1(OC(=O)c2cncn2[C@H](C)c2ccccc2)CC1 [CPMM, 1-(methoxycarbonyl)cyclopropyl-1-[(1R)-1-phenylethyl]-1H-imidazole-5-carboxylate]
Change in CPMM % Purity (Ascorbic Acid 0.5% in pH 3 buffer, 1 week 25° C./60% RH): −14.4%
Change in CPMM % Purity (Ascorbic Acid 0.5% in pH 3 buffer, 1 week 40° C./75% RH): −31.6%
Change in CPMM % Purity (Ascorbic Acid 0.5% in pH 3 buffer, 2 weeks 25° C./60% RH): −26.4%
Change in CPMM % Purity (Ascorbic Acid 0.5% in pH 3 buffer, 2 weeks 40° C./75% RH): −49.8%
CPMM % Purity (Ascorbic Acid 0.5% in pH 3 buffer): 97.6%
Change in CPMM % Purity (Ascorbic Acid/Edetate Disodium Dihydrate 0.5%/0.05% in pH 3 buffer, 1 week 25° C./60% RH): −2.2%
Change in CPMM % Purity (Ascorbic Acid/Edetate Disodium Dihydrate 0.5%/0.05% in pH 3 buffer, 1 week 40° C./75% RH): −9.8%
Change in CPMM % Purity (Ascorbic Acid/Edetate Disodium Dihydrate 0.5%/0.05% in pH 3 buffer, 2 weeks 25° C./60% RH): −4.2%
Change in CPMM % Purity (Ascorbic Acid/Edetate Disodium Dihydrate 0.5%/0.05% in pH 3 buffer, 2 weeks 40° C./75% RH): −17.8%
CPMM % Purity (Ascorbic Acid/Edetate Disodium Dihydrate 0.5%/0.05% in pH 3 buffer): 99.4%
Change in CPMM % Purity (Control: Water, 1 week 25° C./60% RH): −0.9%
Change in CPMM % Purity (Control: Water, 1 week 40° C./75% RH): −3.4%
CPMM % Purity (Control: Water): 99.4%
Change in CPMM % Purity (Control: pH 3 Buffer, 1 week 25° C./60% RH): −1.6%
Change in CPMM % Purity (Control: pH 3 Buffer, 1 week 40° C./75% RH): −5.3%
Change in CPMM % Purity (Control: pH 3 Buffer, 2 weeks 25° C./60% RH): −2.6%
Change in CPMM % Purity (Control: pH 3 Buffer, 2 weeks 40° C./75% RH): −9.2%
CPMM % Purity (Control: pH 3 Buffer): 99.5%
Change in CPMM % Purity (Dextrose 5% in pH 3 buffer, 1 week 25° C./60% RH): −1.5%
Change in CPMM % Purity (Dextrose 5% in pH 3 buffer, 1 week 40° C./75% RH): −5.2%
Change in CPMM % Purity (Dextrose 5% in pH 3 buffer, 2 weeks 25° C./60% RH): −2.5%
Change in CPMM % Purity (Dextrose 5% in pH 3 buffer, 2 weeks 40° C./75% RH): −9.0%
CPMM % Purity (Dextrose 5% in pH 3 buffer): 99.4%
Change in CPMM % Purity (Ethanol 10% in pH 3 buffer, 1 week 25° C./60% RH): −1.1%
Change in CPMM % Purity (Ethanol 10% in pH 3 buffer, 1 week 40° C./75% RH): −3.2%
Change in CPMM % Purity (Ethanol 10% in pH 3 buffer, 2 weeks 25° C./60% RH): −3.1%
Change in CPMM % Purity (Ethanol 10% in pH 3 buffer, 2 weeks 40° C./75% RH): −7.0%
CPMM % Purity (Ethanol 10% in pH 3 buffer): 99.5%
Change in CPMM % Purity (Glycerol 10% in pH 3 buffer, 1 week 25° C./60% RH): −1.3%
Change in CPMM % Purity (Glycerol 10% in pH 3 buffer, 1 week 40° C./75% RH): −4.7%
Change in CPMM % Purity (Glycerol 10% in pH 3 buffer, 2 weeks 25° C./60% RH): −3.6%
Change in CPMM % Purity (Glycerol 10% in pH 3 buffer, 2 weeks 40° C./75% RH): −9.8%
CPMM % Purity (Glycerol 10% in pH 3 buffer): 99.4%
Change in CPMM % Purity (HPβCD 10% in pH 3 buffer, 1 week 25° C./60% RH): −0.4%
Change in CPMM % Purity (HPβCD 10% in pH 3 buffer, 1 week 40° C./75% RH): −1.6%
Change in CPMM % Purity (HPβCD 10% in pH 3 buffer, 2 weeks 25° C./60% RH): −0.6%
Change in CPMM % Purity (HPβCD 10% in pH 3 buffer, 2 weeks 40° C./75% RH): −2.5%
CPMM % Purity (HPβCD 10% in pH 3 buffer): 99.4%
Change in CPMM % Purity (KCl 5% in pH 3 buffer, 1 week 25° C./60% RH): −1.3%
Change in CPMM % Purity (KCl 5% in pH 3 buffer, 1 week 40° C./75% RH): −4.8%
Change in CPMM % Purity (KCl 5% in pH 3 buffer, 2 weeks 25° C./60% RH): −2.2%
Change in CPMM % Purity (KCl 5% in pH 3 buffer, 2 weeks 40° C./75% RH): −8.2%
CPMM % Purity (KCl 5% in pH 3 buffer): 99.4%
Change in CPMM % Purity (Lutrol F68 1% in pH 3 buffer, 1 week 25° C./60% RH): −1.6%
Change in CPMM % Purity (Lutrol F68 1% in pH 3 buffer, 1 week 40° C./75% RH): −5.2%
Change in CPMM % Purity (Lutrol F68 1% in pH 3 buffer, 2 weeks 25° C./60% RH): −2.5%
Change in CPMM % Purity (Lutrol F68 1% in pH 3 buffer, 2 weeks 40° C./75% RH): −9.0%
CPMM % Purity (Lutrol F68 1% in pH 3 buffer): 99.5%
Change in CPMM % Purity (Mannitol 5% in pH 3 buffer, 1 week 25° C./60% RH): −1.5%
Change in CPMM % Purity (Mannitol 5% in pH 3 buffer, 1 week 40° C./75% RH): −5.2%
Change in CPMM % Purity (Mannitol 5% in pH 3 buffer, 2 weeks 25° C./60% RH): −2.6%
Change in CPMM % Purity (Mannitol 5% in pH 3 buffer, 2 weeks 40° C./75% RH): −9.1%
CPMM % Purity (Mannitol 5% in pH 3 buffer): 99.4%
Change in CPMM % Purity (NaCl 5% in pH 3 buffer, 1 week 25° C./60% RH): −1.1%
Change in CPMM % Purity (NaCl 5% in pH 3 buffer, 1 week 40° C./75% RH): −4.0%
Change in CPMM % Purity (NaCl 5% in pH 3 buffer, 2 weeks 25° C./60% RH): −1.9%
Change in CPMM % Purity (NaCl 5% in pH 3 buffer, 2 weeks 40° C./75% RH): −7.2%
CPMM % Purity (NaCl 5% in pH 3 buffer): 99.4%
Change in CPMM % Purity (PEG 400 10% in pH 3 buffer, 1 week 25° C./60% RH): −1.2%
